In US8436031B2 (priority 2004, dated 2013):

How the values were obtained:
SoxS = SoxS (Escherichia coli, UniProt P0A9E2); test: Chemiluminescence DNA binding assay, SoxS; parameters: species or system E. coli; conditions: for EC50 for SoxS compared with ARD: relative to ARD; for EC50: E. coli SoxS, DNA binding
PqrA = PqrA (Proteus mirabilis, UniProt B4ETM4); test: Chemiluminescence DNA binding assay, PqrA; conditions: P. mirabilis PqrA
Rma = Rma (Salmonella typhimurium, UniProt H9L484); test: Chemiluminescence DNA binding assay, Rma; parameters: species or system S. typhimurium
Chain of Rma (H9L484 whole entry): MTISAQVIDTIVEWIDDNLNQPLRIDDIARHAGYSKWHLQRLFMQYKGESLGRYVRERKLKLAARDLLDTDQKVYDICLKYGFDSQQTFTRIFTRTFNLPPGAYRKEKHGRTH

MarA [1] = target: T1, MarA (Escherichia coli, UniProt P0ACH5); test: Chemiluminescence DNA binding assay, MarA; conditions: E. coli MarA
Target sequence in this assay (P0ACH5 whole entry): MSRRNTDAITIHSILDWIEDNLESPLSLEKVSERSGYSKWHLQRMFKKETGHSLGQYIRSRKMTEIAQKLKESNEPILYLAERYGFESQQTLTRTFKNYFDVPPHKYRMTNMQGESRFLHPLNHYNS

ExsA = ExsA (Pseudomonas aeruginosa, UniProt P26993); test: Chemiluminescence DNA binding assay, ExsA; parameters: species or system P. aeruginosa
Chain of ExsA (P26993 whole entry): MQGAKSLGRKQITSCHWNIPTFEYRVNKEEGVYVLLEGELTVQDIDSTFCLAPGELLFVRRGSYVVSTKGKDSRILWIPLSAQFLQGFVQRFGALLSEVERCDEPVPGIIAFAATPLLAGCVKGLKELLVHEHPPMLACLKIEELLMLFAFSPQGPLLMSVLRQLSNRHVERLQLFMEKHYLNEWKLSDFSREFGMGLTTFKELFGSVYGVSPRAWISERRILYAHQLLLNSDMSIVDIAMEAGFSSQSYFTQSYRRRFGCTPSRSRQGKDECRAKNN

Rob = Rob (Escherichia coli, UniProt P0ACI0); test: Chemiluminescence DNA binding assay, Rob; conditions: E. coli Rob
Chain of Rob (P0ACI0 whole entry): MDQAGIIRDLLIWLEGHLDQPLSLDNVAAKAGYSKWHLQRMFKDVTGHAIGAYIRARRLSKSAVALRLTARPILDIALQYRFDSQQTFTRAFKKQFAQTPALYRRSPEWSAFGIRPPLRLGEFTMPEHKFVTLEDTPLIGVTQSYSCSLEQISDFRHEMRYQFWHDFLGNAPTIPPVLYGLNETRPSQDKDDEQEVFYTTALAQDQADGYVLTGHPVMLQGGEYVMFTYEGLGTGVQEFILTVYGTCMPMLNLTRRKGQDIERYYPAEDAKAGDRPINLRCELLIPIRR

SlyA = SlyA (Salmonella typhimurium, UniProt P40676); test: Chemiluminescence DNA binding assay, SlyA (MarR protein control); parameters: species or system S. typhimurium
Chain of SlyA (P40676 whole entry): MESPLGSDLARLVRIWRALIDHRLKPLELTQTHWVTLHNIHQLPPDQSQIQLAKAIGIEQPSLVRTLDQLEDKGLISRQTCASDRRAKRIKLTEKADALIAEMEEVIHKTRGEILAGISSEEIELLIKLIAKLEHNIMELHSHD

LcrF (VirF) = LcrF (VirF) (Yersinia pseudotuberculosis, UniProt Q663J0); test: biochemical; type: binding, Y. pseudotuberculosis
Chain of LcrF (VirF) (Q663J0 1-271): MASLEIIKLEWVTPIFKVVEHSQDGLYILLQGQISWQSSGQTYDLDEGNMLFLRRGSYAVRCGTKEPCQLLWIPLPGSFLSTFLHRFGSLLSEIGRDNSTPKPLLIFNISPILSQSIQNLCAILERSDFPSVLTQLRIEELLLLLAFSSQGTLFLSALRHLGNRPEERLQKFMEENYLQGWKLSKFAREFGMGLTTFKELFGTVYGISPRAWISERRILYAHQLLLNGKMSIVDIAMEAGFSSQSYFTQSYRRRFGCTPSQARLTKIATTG

[2] = In vivo toxicity, repeat dose experiments; conditions: mice; subcutaneous 25 mg/Kg, two doses on day 1, single dose on days 2-5
Protocol: The in vivo toxicity of Mar inhibitors ATB, BAB, BAF, BBP and BBS were investigated in repeat dose experiments. Mice were given two subcutaneous doses (25 mg/Kg) of a Mar inhibitor on day 1 and a single dose of the compound on days 2-5.

MarA [3] = target: T1, MarA; test: Selective marker (ccdB) under MarA-activated promoter; cell survival under MarA expression (Example 2); type: cell-based; parameters: key: *: good inhibition of MarA; **: very good inhibition of MarA; conditions: inhibition of MarA; cell survival under conditions of MarA expression
Text: In this example, the expression of a selective marker (e.g., ccdB) is put under the direct control of a promoter activated by MarA (e.g., inaA, galT, or micF). In the absence of MarA, the expression of the selective marker is silent and cells survive. Synthesis of MarA from an inducible plasmid in a bacterial or yeast cell leads to the activation of the inaA promoter, expression of ccdB, and subsequently results in cell death. Compounds that inhibit MarA are those that permit cell survival under conditions of MarA expression. In Table 4, * indicates good inhibition of MarA and ** indicates very good inhibition of MarA.
Target sequence in this assay (P0ACH5 whole entry, looked up): as the sequence (P0ACH5 whole entry) above

Chain of SoxS (P0A9E2 whole entry): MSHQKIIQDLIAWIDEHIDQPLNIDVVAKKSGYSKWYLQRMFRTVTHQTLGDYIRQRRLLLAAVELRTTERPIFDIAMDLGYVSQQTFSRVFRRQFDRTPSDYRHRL
Chain of PqrA (B4ETM4 entry or part of it): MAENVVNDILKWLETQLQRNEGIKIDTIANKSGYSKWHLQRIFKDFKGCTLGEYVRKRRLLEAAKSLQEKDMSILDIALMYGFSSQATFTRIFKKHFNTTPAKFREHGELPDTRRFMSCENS

O=C(Nc1ccc(-c2nc3ccc([N+](=O)[O-])cc3n2O)cc1)c1ccc(Cl)cc1 [AST]
EC50 for SoxS compared with ARD (SoxS): higher than that of ARD

O=[N+]([O-])c1ccc2nc(-c3ccc(-c4ccccc4)o3)n(O)c2c1 [ARD]
EC50 (PqrA): 13.6 µM | EC50 (Rma): 17 µM | EC50 (MarA [1]): 11.7 µM | EC50 (ExsA): 15.6 µM | EC50 (Rob): 28 µM | EC50 (SoxS): 8.3 µM | EC50 (SlyA): 11.9 µM

Cc1ccc(/C=C/C(=O)Nc2ccc(-c3nc4ccc([N+](=O)[O-])cc4n3O)cc2)cc1 [BCK]
EC50 (LcrF (VirF)): 0.8 µM

COc1ccc(/C=C/C(=O)Nc2ccc(-c3nc4ccc([N+](=O)[O-])cc4n3O)cc2)cc1 [BCL]
EC50 (LcrF (VirF)): 5.1 µM

O=C(Nc1ccc(-c2nc3ccc([N+](=O)[O-])cc3n2O)cc1)c1ccccc1 [AQQ]
EC50 for SoxS compared with ARD (SoxS): higher than that of ARD

CC(=O)c1ccc(C(=O)Nc2ccc(-c3nc4ccc([N+](=O)[O-])cc4n3O)cc2)cc1 [BAF]
in vivo toxicity [2]: No overt signs of toxicity

O=C(Nc1ccc(-c2nc3ccc([N+](=O)[O-])cc3n2O)cc1)c1ccc(F)cc1 [ASU]
EC50 (LcrF (VirF)): 17.7 µM | EC50 (Rma): 4.9 µM | EC50 (ExsA): 4 µM | EC50 (Rob): 4.7 µM | EC50 (SoxS): 3 µM | EC50 (SlyA): 51 µM

Cc1ccc(C(=O)Nc2ccc(-c3nc4ccc([N+](=O)[O-])cc4n3O)cc2)cc1 [ATB]
EC50 (LcrF (VirF)): 15.5 µM | in vivo toxicity [2]: No overt signs of toxicity | EC50 (ExsA): 4 µM | EC50 (Rob): 7.4 µM | EC50 (SoxS): 2.7 µM

O=C(Nc1ccc(-c2nc3ccc([N+](=O)[O-])cc3n2O)cc1)c1cccc(F)c1 [BBS]
EC50 (LcrF (VirF)): 29 µM | in vivo toxicity [2]: No overt signs of toxicity

O=C(Nc1ccc(-c2nc3ccc([N+](=O)[O-])cc3n2O)cc1)c1ccccc1F [BBW]
EC50 (LcrF (VirF)): > 57.3 µM

O=C(NCc1ccc(-c2nc3ccc([N+](=O)[O-])cc3n2O)cc1)c1ccccc1 [ASS]
EC50 for SoxS compared with ARD (SoxS): higher than that of ARD

N#Cc1ccc(C(=O)Nc2ccc(-c3nc4ccc([N+](=O)[O-])cc4n3O)cc2)cc1 [BAB]
in vivo toxicity [2]: No overt signs of toxicity

Cc1cccc(C(=O)Nc2ccc(-c3nc4ccc([N+](=O)[O-])cc4n3O)cc2)c1 [BBT]
EC50 (LcrF (VirF)): 27.5 µM

O=C(Nc1ccc(-c2nc3ccc([N+](=O)[O-])cc3n2O)cc1)c1cccc(Cl)c1 [ASX]
EC50 (Rma): 3.5 µM | EC50 (ExsA): 2.5 µM | EC50 (Rob): 3.4 µM | EC50 (SoxS): 4.9 µM | EC50 (SlyA): 21.7 µM

O=C(/C=C/c1ccc(F)cc1)Nc1ccc(-c2nc3ccc([N+](=O)[O-])cc3n2O)cc1 [BBP]
EC50 (LcrF (VirF)): 7.1 µM | in vivo toxicity [2]: No overt signs of toxicity

O=[N+](O)c1cccc2c1nc(-c1ccco1)n2O [AQV]
EC50 for SoxS compared with ARD (SoxS): higher than that of ARD

O=C(/C=C/c1ccc(F)cc1F)Nc1ccc(-c2nc3ccc([N+](=O)[O-])cc3n2O)cc1 [BCO]
EC50 (LcrF (VirF)): 2.2 µM

CN(C)c1ccc(C(=O)Nc2ccc(-c3nc4ccc([N+](=O)[O-])cc4n3O)cc2)cc1 [ATE]
EC50 (LcrF (VirF)): 36.5 µM | EC50 (PqrA): 1.4 µM | EC50 (Rma): 1.8 µM | EC50 (MarA [1]): 1.2 µM | EC50 (ExsA): 1.9 µM | EC50 (Rob): 1.3 µM | EC50 (SoxS): 0.82 µM | EC50 (SlyA): 14.3 µM

COc1cccc(-c2nc3ccc([N+](=O)[O-])cc3n2O)c1 [ANU]
EC50 for SoxS compared with ARD (SoxS): higher than that of ARD

O=[N+]([O-])c1ccc2nc(-c3ccco3)n(O)c2c1 [AOX]
EC50 for SoxS compared with ARD (SoxS): higher than that of ARD

COc1ccc(C(=O)Nc2ccc(-c3nc4ccc([N+](=O)[O-])cc4n3O)cc2)cc1 [ASR]
EC50 (LcrF (VirF)): 18.3 µM

NC(=O)c1ccc2nc(-c3ccccc3)n(O)c2c1 [APJ]
EC50 for SoxS compared with ARD (SoxS): higher than that of ARD

CN(C)c1ccc(-c2nc3ccc([N+](=O)[O-])cc3n2O)cc1 [ARB]
EC50 for SoxS compared with ARD (SoxS): higher than that of ARD

Cc1ccccc1C(=O)Nc1ccc(-c2nc3ccc([N+](=O)[O-])cc3n2O)cc1 [BBV]
EC50 (LcrF (VirF)): > 57.9 µM

c1ccc(CSc2ncc(-c3nnnn3-c3ccccc3)c(-c3ccccc3)n2)cc1 [AY, 2-(benzylthio)-4-phenyl-5-(1-phenyl-1H-1,2,3,4-tetraazol-5-yl)pyrimidine]
MarA inhibition score (cell survival) (MarA [3]): **

O=C1C(=C2NC(c3ccccn3)C3C(=O)N(c4ccccc4)C(=O)C23)C(=O)c2ccccc21 (centres unmarked) [BB, 4-(1,3-dioxo-1,3-dihydro-2H-inden-2-yliden)-2-phenyl-6-(2-pyridinyl)tetrahydro pyrrolo[3,4-c]pyrrole-1,3(2H,3aH)-dione]
MarA inhibition score (cell survival) (MarA [3]): *

O=[N+]([O-])c1ccc2nc(-c3ccoc3)n(O)c2c1 [AOW]
EC50 for SoxS compared with ARD (SoxS): higher than that of ARD

CCCSc1nnc2c(n1)OC(c1ccc(-c3cccc([N+](=O)[O-])c3)o1)Nc1ccccc1-2 (centres unmarked) [L, 6-[5-(3-Nitro-phenyl)-furan-2-yl]-3-propylsulfanyl-6,7-dihydro-5-oxa-1,2,4,7-tetraaza-dibenzo[a,c]cycloheptene]
MarA inhibition score (cell survival) (MarA [3]): **
